Measured values from patent US20210301315A1, “METHODS FOR TREATING POLYMICROBIAL INFECTIONS” (priority 2017, published 2021).
“Also recorded” adds a separate entry of the source.

Key:
[1] = test system: E. coli and K. pneumoniae; assay: P-AST species-pair interaction on antibiotic resistance (logistic regression, HSAP/UP); format: cell-based, Escherichia coli; Klebsiella pneumoniae
Experimental: (§1) The Pooled Antibiotic Sensitivity Test (P-AST) is permitting the organisms identified to grow in the presence of antibiotics and measuring the minimum concentration of antibiotic to inhibit growth. Antibiotic susceptibility testing is performed when at least a single organism within a pool of organisms reaches a certain threshold, (e.g., at least 3,000 cells/ml, at least 5,000 cells/ml, at least 10,000 cells/ml, etc.) and can grow in the presence of the antibiotic in the assay within the time of testing. (Note: 10,000 cells/ml is equivalent to 10,000 CFU/ml.) The present invention is not limited to a 10,000 cells/mL threshold. These pools of organism(s) are inoculated into growth medium then placed onto an antibiotic laden “spec plate” that is then incubated and analyzed for growth. The breakpoints are derived from the CLSI breakpoints.
P-AST was performed by aliquoting 1 mL of patient urine specimen into a 1.7 mL microcentrifuge tube. After centrifugation, the supernatant was aspirated and discarded, leaving approximately 100 or 50 μL (minimum volume left above pellet created from centrifugation) of patient sample in the microcentrifuge tube. […] Optical density of samples was then read on a DensiCHEK plate reader. […] A spectrophotometer (plate reader) is used to measure optical density of the samples in wells of antibiotics and inoculum in order to determine if there is growth in a well. […]

[2] = test system: bacterial organisms present in patient urine sample; assay: Antibiotic Resistance (ABR) assay utilizing liquid growth medium; format: cell-based; details: liquid medium
Experimental: Urine samples suitable for processing with this assay are collected, transported, and stored using BD Vacutainer tubes or other suitable leak-proof sterile containers. Urine samples may be held at room temperature for 48 hours before test results are compromised.
Antibiotic stocks are stored at 2-8° C. and protected from direct sunlight. Prepared antibiotic stock solutions were aliquoted into a 96-deep well plate (ThermoFisher Scientific) to form a 50× Antibiotic Source Plate and then diluted 1:5 to form a 10× Antibiotic Source Plate, as shown in FIG. 12 where each well is identified by antibiotic name and concentration (μg/mL; 10× final concentration). […] One well was assigned sodium azide to ensure no bacterial growth would be observed in that well.
Twenty microliters of each antibiotic solution were aliquoted into the pre-determined wells of a 96-well microplate (VIS 96/F-PS, Eppendorf) from the 10× Antibiotic Source Plate to create ABR testing plates for inoculation. These ABR testing plates were allowed to sit for up to 24 hours before use at 2-8° C. in the dark.
At the time of testing, urine samples were centrifuged to concentrate any bacterial cells and then mixed with liquid Mueller-Hinton medium and incubated for 6-16 hours at 37° C. After this initial incubation, the sample is diluted to 0.5-0.6 McF in saline and then 500 μl of that suspension was added to […] of Mueller-Hinton medium. One-hundred and eighty microliters of the diluted sample is then aliquoted to each well of the ABR microplate already containing 10× antibiotic solution, bringing all of the antibiotics to the desired final concentration. The plate is then sealed and incubated for 12-16 hours at 37° C.
After incubation, the plate was removed from the incubator and carefully uncovered and the OD600 was determined for each appropriate well by spectrophotometer. Five separate measurements were taken of each well on a plate and the mean OD600 measurement calculated for each well.
Controls are depicted in Table 10.
The raw data was then “blanked” using the measurement obtained from the Na-Azide well, as depicted in Table 14.
To determine whether bacterial organisms present in the patient samples were resistant or sensitive to a particular antibiotic at a certain concentration, blanked OD readings were compared to a threshold OD600 of 0.065 (Table 15). An OD measurement greater than or equal to this threshold was designated Resistant (R) meaning bacterial organisms present in patient sample were resistant to that particular antibiotic at that certain concentration. Any OD measurement less than this threshold was designated Sensitive (S) meaning bacterial organisms present in patient sample were sensitive to that particular antibiotic at that certain concentration.

E. coli and P. mirabilis = assay: P-AST species-pair interaction on antibiotic resistance (logistic regression, HSAP/UP); format: cell-based, Escherichia coli; Proteus mirabilis; details: E. coli and P. mirabilis together v. expected from each species alone (HSAP/UP)
Experimental: as §1
(§2) P-AST was performed by aliquoting 1 mL of patient urine specimen into a 1.7 mL microcentrifuge tube. After centrifugation, the supernatant was aspirated and discarded, leaving approximately 100 or 50 μL (minimum volume left above pellet created from centrifugation) of patient sample in the microcentrifuge tube. One mL of Mueller Hinton Growth Media was then aliquoted into the patient sample in the microcentrifuge tube and the tubes were incubated at 35° C. in a non-CO2 incubator for 6 hours. Non-inoculated liquid MH-media is incubated as the negative control to confirm the media used is not contaminated. Those samples that reached a minimum threshold of 10,000 cells/mL were then diluted by aliquoting 0.5 mL of sample into a 50 mL conical tube containing Mueller Hinton Growth Media (in this example, the dilution was 1:60, e.g., 500 μL was added to 29.5 mL). 96-well plates pre-loaded with antibiotics were then inoculated with diluted samples and incubated along with control plates for 12-16 hours at 35° C. in a single layer. Optical density of samples was then read on a DensiCHEK plate reader. The DensiCHEK instrument is used to measure the concentration of turbid samples considered positive because PCR-ID result was >=10,000 cells/mL. The turbid samples were diluted/normalized to the same concentration and then added to a volume of liquid, e.g., 29.5 mL of liquid MH-media. A spectrophotometer (plate reader) is used to measure optical density of the samples in wells of antibiotics and inoculum in order to determine if there is growth in a well. The present invention is not limited to a concentration of 10,000 cells/mL.
(§3) Interactions between pairs of bacterial species were investigated using a logistic regression model to predict resistance in the presence of specific bacterial species. Bacterial species that tested positive in at least 30 samples were considered in the regression model: these 16 species were A. schaalii, A. urinae, A. omnicolens, CoNS, C. riegelii, E. faecalis, E. coli, K. oxytoca, K. pneumoniae, M. morganii, P. mirabilis, P. aeruginosa, S. aureus, S. agalactiae, U. urealyticum, VGS. Backward stepwise model selection was performed on the model with all main effects and all pairwise interactions using an enter significance level of α=0.10 and an exit significance level of α=0.05 to obtain the best fitting model. This model was used to predict resistance rates when a specific organism was present or when a specific pair of organisms were present.
(§4) Using the logistic regression model described above, the resistance rate for a pair of species was compared to the resistance rates for each species alone. […]

[3] = test system: E. coli and S. agalactiae; assay: as above; format: cell-based, Escherichia coli; Streptococcus agalactiae; details: E. coli and S. agalactiae together v. expected from each species alone (HSAP/UP)
Experimental: as §1, §2, §3, §4

Row | Structure (SMILES) | change in antibiotic resistance of the pair of organisms ([1]; E. coli and K. pneumoniae together v. expected from each species alone (HSAP/UP)) | resistance rate of the combination compared with each species alone ([1]; predicted probabilities, FIG. 1, HSAP model) | Blanked (OD600 minus Na-Azide well) ([2]; antibiotic 8 μg/mL) | Mean (OD600) ([2]; antibiotic 8 μg/mL) | Blanked (OD600 minus Na-Azide well) ([2]; antibiotic 32 μg/mL) | Mean (OD600) ([2]; antibiotic 32 μg/mL) | change in antibiotic resistance of the pair of organisms (E. coli and P. mirabilis) | Blanked (OD600 minus Na-Azide well) ([2]; antibiotic 2 μg/mL) | Mean (OD600) ([2]; antibiotic 2 μg/mL) | Blanked (OD600 minus Na-Azide well) ([2]; antibiotic 16 μg/mL) | Mean (OD600) ([2]; antibiotic 16 μg/mL) | Blanked (OD600 minus Na-Azide well) ([2]; antibiotic 4 μg/mL) | Mean (OD600) ([2]; antibiotic 4 μg/mL) | change in antibiotic resistance of the pair of organisms [3]
1 | N[C@@H](C(=O)N[C@@H]1C(=O)N2C(C(=O)O)=C(Cl)CS[C@H]12)c1ccccc1 [Cefaclor, cefaclor] | increased odds of resistance; also recorded: higher resistance; also recorded: increased the probability of antibiotic resistance; also recorded: increase in resistance | higher than either E. coli or K. pneumoniae alone | 0.1875 | 0.2332 | 0.0143 | 0.0600 | decrease in resistance; also recorded: decreased odds of resistance | – | – | – | – | – | – | –
2 | Cc1nnc(SCC2=C(C(=O)O)N3C(=O)[C@@H](NC(=O)Cn4cnnn4)[C@H]3SC2)s1 [Cefazolin, cefazolin] | – | – | 0.1633 | 0.2090 | 0.0113 | 0.0570 | decrease in resistance; also recorded: decreased odds of resistance | 0.1882 | 0.2339 | 0.1011 | 0.1468 | – | – | –
3 | CC(C)(O/N=C(\C(=O)N[C@@H]1C(=O)N2C(C(=O)[O-])=C(C[n+]3ccccc3)CS[C@H]12)c1csc(N)n1)C(=O)O [Ceftazidime, ceftazidime] | – | – | 0.2150 | 0.2607 | 0.1980 | 0.2437 | decrease in resistance; also recorded: decreased odds of resistance | – | – | 0.2016 | 0.2473 | 0.2000 | 0.2457 | decrease in resistance; also recorded: decreased odds of resistance
